Read-outs that look alike come from different tables or passages of the source.
Columns and labels:
Assay type in all cases: cell-based
[1] = tested on: MDA-MB-231 (breast cancer); test: Antiproliferative activity (CCK-8 cell viability), MDA-MB-231; details: Homo sapiens, 72 h; for inhibition at 3.3 µM: Compound concentration: 3.3 μM; for inhibition at 10 µM: Compound concentration: 10 μM; for inhibition at 30 µM: Compound concentration: 30 μM
Protocol: (§1) The antiproliferative activity of a compound was determined in the following cell lines: MDA-MB-231 (breast cancer), HepG2 (liver cancer), SW480 (colon cancer), B16F10 (malignant melanoma), A431 (epidermoid carcinoma), A549 (lung adenocarcinoma), and HeLa (cervical cancer). MDA-MB-231, HepG2, SW480, B16F10, and A431 cells were cultured in Dulbecco's modified Eagle's medium (DMEM) containing 10% fetal bovine serum (FBS). HeLa cells were cultured in MEM/EBSS (MEM) containing 10% FBS. A549 cells were maintained in Kaighn's modification of Ham's F-12 medium containing 10% FBS. A Cell Counting Kit-8 (CCK-8) was used to measure the cell viability of different cells following treatment with the compound.
(§2) Briefly cells were seeded in a 96-well plate at a density of 2,000-5,000 cells/well. Following attachment, the cells were treated with the compound in media at a compound concentration of 3.3 μM, 10 μM, or 30 μM. After the cells were incubated at 37° C. for 72 h, a CCK-8 solution (10 μL) was added to each well. After incubation at 37° C. for 4 h, the absorbance value of each well was determined using a multi-well plate reader at 450 nm. The wells treated with DMSO were taken as a vehicle control. Data were also obtained similarly for all the replicates and the percentage of cell viability was determined with respect to the DMSO-treated cells. The results are summarized in Tables 2-4, wherein A represents no less than […] of cell growth; B represents no less than 30% but less than 50% inhibition of cell growth; and C represents less than 30% inhibition of cell growth.

HeLa (cervical cancer) = test: Antiproliferative activity (CCK-8 cell viability), HeLa; details: Homo sapiens, 72 h, read-out: Antiproliferative activity in cancerous cells, HELA (inhibition of cell growth); for inhibition at 3.3 µM: Compound concentration: 3.3 μM; for inhibition at 10 µM: Compound concentration: 10 μM
Protocol: as §1, §2

[2] = tested on: A549 (lung adenocarcinoma); test: Antiproliferative activity (CCK-8 cell viability), A549; details: Homo sapiens, 72 h, read-out: Antiproliferative activity in cancerous cells, A549 (inhibition of cell growth); for inhibition at 3.3 µM: Compound concentration: 3.3 μM; for inhibition at 10 µM: Compound concentration: 10 μM
Protocol: as §1, §2

[3] = tested on: A431 (epidermoid carcinoma); test: Antiproliferative activity (CCK-8 cell viability), A431; details: Homo sapiens, 72 h, read-out: Antiproliferative activity in cancerous cells, A431 (inhibition of cell growth); for inhibition at 3.3 µM: A-431, Compound concentration: 3.3 μM; for inhibition at 10 µM: A-431, Compound concentration: 10 μM
Protocol: as §1, §2

[4] = tested on: B16F10 (malignant melanoma); test: Antiproliferative activity (CCK-8 cell viability), B16F10; details: Mus musculus, 72 h, read-out: Antiproliferative activity in cancerous cells, B16F10 (inhibition of cell growth); for inhibition at 3.3 µM: B16-F10, Compound concentration: 3.3 μM; for inhibition at 10 µM: B16-F10, Compound concentration: 10 μM
Protocol: as §1, §2

SW480 (colon cancer) = test: Antiproliferative activity (CCK-8 cell viability), SW480; details: Homo sapiens, 72 h; for inhibition at 3.3 µM: Compound concentration: 3.3 μM; for inhibition at 10 µM: Compound concentration: 10 μM; for inhibition at 30 µM: Compound concentration: 30 μM
Protocol: as §1, §2

HepG2 (liver cancer) = test: Antiproliferative activity (CCK-8 cell viability), HepG2; details: Homo sapiens, 72 h, read-out: Antiproliferative activity in cancerous cells, HepG2 (inhibition of cell growth); for inhibition at 3.3 µM: Compound concentration: 3.3 μM; for inhibition at 10 µM: Compound concentration: 10 μM
Protocol: as §1, §2

[5] = read-out: Antiproliferative activity in cancerous cells, MDA-MB-231 (inhibition of cell growth)
[6] = read-out: Antiproliferative activity in cancerous cells, SW480 (inhibition of cell growth)

Structure (SMILES)	inhibition at 3.3 µM [1, 5]	inhibition at 10 µM [1, 5]	inhibition at 3.3 µM (HeLa (cervical cancer))	inhibition at 10 µM (HeLa (cervical cancer))	inhibition at 3.3 µM [2]	inhibition at 10 µM [2]	inhibition at 3.3 µM [3]	inhibition at 10 µM [3]	inhibition at 3.3 µM [4]	inhibition at 10 µM [4]	inhibition at 3.3 µM (SW480 (colon cancer); [6])	inhibition at 10 µM (SW480 (colon cancer); [6])	inhibition at 3.3 µM (HepG2 (liver cancer))	inhibition at 10 µM (HepG2 (liver cancer))	other results
CC1=C(CC(=O)O)c2cc(Br)ccc2/C1=C/c1ccc(Oc2ccc(F)cc2)cc1 [E32, (E)-2-(5-Bromo-1-(4-(4-fluorophenoxy)benzylidene)-2-methyl-1H-inden-3-yl)acetic acid]	≥ 50%	≥ 50%	≥ 50%	≥ 50%	30 to 50%	≥ 50%	≥ 50%	≥ 50%	≥ 50%	≥ 50%	30 to 50%	≥ 50%	< 30%	≥ 50%	inhibition at 30 µM [1, 5]: ≥ 50%; inhibition at 30 µM (HeLa (cervical cancer); Compound concentration: 30 μM): ≥ 50%; inhibition at 30 µM ([2]; Compound concentration: 30 μM): ≥ 50%; inhibition at 30 µM ([3]; A-431, Compound concentration: 30 μM): ≥ 50%; inhibition at 30 µM ([4]; B16-F10, Compound concentration: 30 μM): ≥ 50%; inhibition at 30 µM (SW480 (colon cancer); [6]): ≥ 50%; inhibition at 30 µM (HepG2 (liver cancer); Compound concentration: 30 μM): ≥ 50%
CC1=C(CC(=O)O)c2cc(Cl)ccc2/C1=C\c1ccc(COCc2ccc(F)cc2)cc1 [B148, (Z)-2-(5-Chloro-1-(4-(((4-fluorobenzyl)oxy)methyl)benzylidene)-2-methyl-1H-inden-3-yl)acetic acid]	30 to 50%	30 to 50%	30 to 50%	≥ 50%	30 to 50%	≥ 50%	≥ 50%	≥ 50%	< 30%	< 30%	≥ 50%	≥ 50%	< 30%	≥ 50%	–
CC1=C(CC(=O)O)c2cc(Cl)ccc2/C1=C\c1ccc(Oc2ccc(C(C)C)cc2)cc1 [C84, (Z)-2-(5-Chloro-1-(4-(4-isopropylphenoxy)benzylidene)-2-methyl-1H-inden-3-yl)acetic acid]	≥ 50%	≥ 50%	≥ 50%	≥ 50%	≥ 50%	≥ 50%	≥ 50%	≥ 50%	≥ 50%	≥ 50%	≥ 50%	≥ 50%	≥ 50%	≥ 50%	–
CC1=C(CC(=O)O)c2cc(F)ccc2/C1=C\c1ccc(COCc2ccc(C)cc2)cc1 [B102, (Z)-2-(5-Fluoro-2-methyl-1-(4-(((4-methylbenzyl)oxy)methyl)benzylidene)-1H-inden-3-yl)acetic acid]	30 to 50%	≥ 50%	< 30%	≥ 50%	< 30%	≥ 50%	≥ 50%	≥ 50%	< 30%	≥ 50%	< 30%	≥ 50%	30 to 50%	≥ 50%	–
CC1=C(CC(=O)O)c2cc(F)ccc2/C1=C\c1ccc(Oc2ccc(Cl)cc2C)cc1 [C55, (Z)-2-(1-(4-(4-Chloro-2-methylphenoxy)benzylidene)-5-fluoro-2-methyl-1H-inden-3-yl)acetic acid]	< 30%	≥ 50%	≥ 50%	≥ 50%	< 30%	< 30%	30 to 50%	≥ 50%	≥ 50%	≥ 50%	< 30%	≥ 50%	< 30%	≥ 50%	–
CCc1ccc2c(c1)C(CC(=O)O)=C(C)/C2=C/c1cccc(COc2ccc(F)cc2)c1 [B71, (Z)-2-(5-Ethyl-1-(3-((4-fluorophenoxy)methyl)benzylidene)-2-methyl-1H-inden-3-yl)acetic acid]	< 30%	≥ 50%	< 30%	≥ 50%	30 to 50%	≥ 50%	≥ 50%	≥ 50%	< 30%	≥ 50%	< 30%	< 30%	< 30%	< 30%	–
COc1ccc(Oc2ccc(/C=C3/C(C)=C(CC(=O)O)c4cc(F)ccc43)cc2)cc1Cl [C70, (Z)-2-(1-(4-(3-Chloro-4-methoxyphenoxy)benzylidene)-5-fluoro-2-methyl-1H-inden-3-yl)acetic acid]	< 30%	< 30%	< 30%	≥ 50%	< 30%	30 to 50%	≥ 50%	≥ 50%	< 30%	30 to 50%	< 30%	< 30%	< 30%	≥ 50%	inhibition at 30 µM ([1]; read-out: Antiproliferative activity in cancerous cells, MDA-MB-231): 30 to 50%; inhibition at 30 µM (SW480 (colon cancer); read-out: Antiproliferative activity in cancerous cells, SW480): < 30%
CCc1ccc(Oc2ccc(/C=C3/C(C)=C(CC(=O)O)c4cc(Cl)ccc43)cc2)cc1 [C85, (Z)-2-(5-Chloro-1-(4-(4-ethylphenoxy)benzylidene)-2-methyl-1H-inden-3-yl)acetic acid]	≥ 50%	≥ 50%	≥ 50%	≥ 50%	< 30%	≥ 50%	≥ 50%	≥ 50%	30 to 50%	≥ 50%	< 30%	≥ 50%	≥ 50%	≥ 50%	–
